The text below walks through data of ChEMBL document CHEMBL1150121, “A new cytotoxic calyculinamide derivative, geometricin A, from the Australian sponge Luffariella geometrica” (2002).

Converted amounts (≈) assume the structure as drawn.

Holding throughout (type): functional
The subject of one test is HepG2. The test is described as follows: Growth inhibition of human HepG2 cells.
In the next test the test system is [Chlorella] fusca. The test is described as follows: Antialgal activity against Chlorella fusca at 50 ug/disk by agar diffusion test. Conditions: Scenedesmus fuscus; read-out: IZ. A general note: Agar diffusion results depend on both activity and mobility in agar.
A further test concerns Microbotryum violaceum. Put plainly: Antifungal activity against Microbotryum violaceum at 50 ug/disk by agar diffusion test. The following applies: read-out: IZ.
Test [1] can be described thus: Growth inhibition of human HM02 cells.

The term GI50 denotes the concentration that inhibits growth by half. A high value points to less potent growth inhibition. Broadly, the TGI is the concentration giving total growth inhibition. Take `COC(CC(O)C(C)C(O)C(C)/C=C(C)/C(C)=C/CC/C(C)=C\C(N)=O)[C@H]1O[C@]2(C[C@H](O)[C@H](C)[C@H](C/C=C/c3coc(C)n3)O2)C(C)(C)[C@H]1OP(=O)(O)O` (stereo partly specified) [GEOMETRICIN A]: the GI50 in the test on HepG2 stood at 2.8 µg/mL (≈ 3.58 µM); in test [1], 1.7 µg/mL (≈ 2.17 µM). For the same compound, the total growth inhibition concentration (TGI) with HepG2 stood at 8.8 µg/mL (≈ 11.2 µM); in test [1], 3.2 µg/mL (≈ 4.09 µM). Moreover, the zone of inhibition at 50 µg/disc (in test [Chlorella] fusca; in the test with Microbotryum violaceum) was 5 mm throughout.
